From ChEMBL document CHEMBL4265901, “Eupatilin inhibits angiogenesis-mediated human hepatocellular metastasis by reducing MMP-2 and VEGF signaling” (Bioorg Med Chem Lett, 2018)
Active and inactive are the calls of the source. The calls are words filed in the database; no cut-off is given here.

Assays:
[1] = tested on: HUVEC; assay: Downregulation of VEGF protein level in HUVEC at 3.125 uM after 24 hrs by Western blot analysis relative to control; type: functional, Homo sapiens
[2] = tested on: HUVEC; assay: Cytotoxicity activity against HUVEC assessed as decrease in cell viability up to 6.25 uM after 24 hrs by MTT assay; type: cell-based; details: human
[3] = tested on: HUVEC; assay: Antiangiogenic activity in HUVEC assessed as inhibition of tube formation at 3.125 uM after 24 hrs by light microscopic analysis relative to control; type: functional; details: Homo sapiens
[4] = biological target: RAC-alpha serine/threonine-protein kinase (Homo sapiens) (UniProt P31749); assay: Inhibition of Akt phosphorylation in HUVEC at 3.125 uM after 24 hrs by Western blot analysis relative to control; type: cell-based
Sequence of RAC-alpha serine/threonine-protein kinase (Homo sapiens) (P31749 whole entry): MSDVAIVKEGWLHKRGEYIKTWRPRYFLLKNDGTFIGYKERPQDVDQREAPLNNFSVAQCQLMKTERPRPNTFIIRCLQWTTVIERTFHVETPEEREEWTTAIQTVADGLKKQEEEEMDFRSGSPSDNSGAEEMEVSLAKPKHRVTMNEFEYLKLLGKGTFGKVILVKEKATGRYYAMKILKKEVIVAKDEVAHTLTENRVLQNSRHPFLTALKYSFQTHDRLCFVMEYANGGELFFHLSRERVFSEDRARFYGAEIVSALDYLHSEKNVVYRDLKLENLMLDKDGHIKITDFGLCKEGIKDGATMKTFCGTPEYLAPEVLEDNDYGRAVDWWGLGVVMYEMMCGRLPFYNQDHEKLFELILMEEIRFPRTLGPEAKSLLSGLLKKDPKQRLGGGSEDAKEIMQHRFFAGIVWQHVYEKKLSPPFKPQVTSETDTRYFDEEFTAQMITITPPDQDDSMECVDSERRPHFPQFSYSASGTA

[5] = tested on: SNU-182; assay: Downregulation of MMP9 mRNA levels in human SNU182 cells at 20 uM after 24 hrs by quantitative real-time qPCR analysis; type: functional, cell-based
[6] = tested on: HepG2; assay: Antiproliferative activity against human HepG2 cells after 24 hrs by MTT assay; type: functional, cell-based
[7] = tested on: SNU-182; assay: Cytotoxicity against human SNU182 cells assessed as decrease in cell viability up to 20 uM after 48 hrs by MTT assay; type: cell-based; details: snu-182, 48 h
[8] = tested on: HUVEC; assay: Downregulation of HIF-1 alpha protein level in HUVEC at 6.25 uM after 24 hrs by Western blot analysis relative to control; type: functional, Homo sapiens
[9] = tested on: HUVEC; assay: Antiangiogenic activity in HUVEC assessed as inhibition of tube formation at 6.25 uM after 24 hrs by light microscopic analysis relative to control; type: functional; details: Homo sapiens
[10] = tested on: SNU-182; assay: Downregulation of MMP2 mRNA levels in human SNU182 cells at 20 uM after 24 hrs by quantitative real-time qPCR analysis; type: functional, cell-based
[11] = tested on: HUVEC; assay: Downregulation of VEGF level in HUVEC at 6.25 uM after 24 hrs by Western blot analysis relative to control; type: functional, Homo sapiens
[12] = biological target: RAC-alpha serine/threonine-protein kinase (Homo sapiens) (UniProt P31749); assay: Inhibition of Akt phosphorylation in HUVEC at 6.25 uM after 24 hrs by Western blot analysis relative to control; type: cell-based
[13] = tested on: HUVEC; assay: Cytotoxicity activity against HUVEC assessed as decrease in cell viability at 12.5 to 100 uM after 24 hrs by MTT assay; type: cell-based; details: human
[14] = tested on: HUVEC; assay: Downregulation of HIF-1 alpha protein level in HUVEC at 3.125 uM after 24 hrs by Western blot analysis relative to control; type: functional, Homo sapiens
[15] = tested on: HepG2; assay: Antiproliferative activity against human HepG2 cells at 200 uM after 24 hrs by MTT assay; type: functional
[16] = tested on: HUVEC; assay: Antiangiogenic activity in HUVEC assessed as inhibition of tube formation at 1.6 uM after 24 hrs by light microscopic analysis relative to control; type: functional; details: Homo sapiens

fold change (FC) [4] | fold change (FC) [12] | Compound | fold change (FC) [1] | Activity [2] | inhibition at 3.125 µM [3] | Activity [5] | Activity [6] | Activity [7] | fold change (FC) [8] | inhibition at 6.25 µM [9] | Activity [10] | Activity [11] | Activity [13] | fold change (FC) [14] | Activity [15] | inhibition at 1.6 µM [16]
0.82 | 0.8 | COc1ccc(-c2cc(=O)c3c(O)c(OC)c(O)cc3o2)cc1OC [EUPATILIN] | 0.88 | Non-Toxic | 14.1% | inactive | Dose-dependent effect | Non-Toxic | 0.84 | 24.8% | Active | 31% | Toxic | 0.83 | 43.24% | –
– | – | CC(C)=CC[C@@H](O)C1=CC(=O)c2c(O)ccc(O)c2C1=O [SHIKONIN] | – | – | – | – | – | – | – | – | – | – | – | – | – | 31.8%
